These results are taken from patent US20250034165A1, “COMPOUND CONTAINING CYCLOALKYL OR HALOALKYL” (CHIA TAI TIANQING PHARMACEUTICAL GROUP CO., LTD., priority 2021, published 2025).

Usually AUC(0-inf) stands for total exposure, with the tail of the curve extrapolated. Usually AUC(0-t) stands for exposure summed from dosing to a finite time, without extrapolation to infinity. The bioavailability is dose-corrected exposure relative to a reference, in per cent. The Cmax is the maximum level reached in the sampled fluid or tissue. As usually defined, the Tmax is the time at which the peak concentration occurs.

Read-outs that look alike come from different tables or passages of the source.

Data set [1] deals with EGFR (d746-750/T790M/C797S) (Homo sapiens (Human), UniProt P00533, C797S/DEL746-750/T790M). The experiment in a line: Inhibitory activity for EGFR (d746-750/T790M/C797S) kinase. It is filed as biochemical. Conditions: ATP 5 μM; read-out: EGFR(d19/T790M/C797S) (IC50). Here is the method: 1.5 Screening for Inhibitory Activity for EGFR (d746-750/T790M/C797S) Kinase
EGFR (d746-750/T790M/C797S), sequence (P00533 other isoform, or with tags, fused parts or gaps T790M/C797S/del 1-694/del 746-750 limits assumed): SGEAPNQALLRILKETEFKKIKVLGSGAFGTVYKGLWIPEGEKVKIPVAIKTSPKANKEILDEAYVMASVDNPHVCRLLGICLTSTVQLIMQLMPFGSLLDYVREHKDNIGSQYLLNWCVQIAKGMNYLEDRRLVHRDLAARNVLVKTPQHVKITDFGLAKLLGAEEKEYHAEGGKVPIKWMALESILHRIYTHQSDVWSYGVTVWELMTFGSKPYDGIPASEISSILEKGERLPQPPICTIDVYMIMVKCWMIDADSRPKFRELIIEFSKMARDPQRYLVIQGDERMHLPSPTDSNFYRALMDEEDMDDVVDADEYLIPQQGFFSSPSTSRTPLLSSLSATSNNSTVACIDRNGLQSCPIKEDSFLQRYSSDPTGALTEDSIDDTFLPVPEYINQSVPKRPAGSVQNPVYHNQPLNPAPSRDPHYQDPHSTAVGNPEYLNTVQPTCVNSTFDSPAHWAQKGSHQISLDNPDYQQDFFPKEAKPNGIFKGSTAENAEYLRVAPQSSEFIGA
(§1) A 50 ng/μL EGFR (d746-750/T790M/C797S, BPS) stock solution was diluted with a kinase buffer (50 mM HEPES, 10 mM MgCl2, 2 mM DTT, 1 mM EGTA, 0.01% Tween 20), and 6 μL of 1.67× working solution at 0.05 ng/μL (final concentration: 0.03 ng/μL) was added to each well. Different compounds dissolved in DMSO were added to the wells using a nanoliter pipettor, resulting in the final concentrations of the compounds of 10 nM to 0.0024 nM (4-fold gradient for 7 concentrations in total), and blank control wells (without enzyme) and negative control wells (with enzyme, plus vehicle DMSO) were set, 2 replicate wells for each concentration. After enzyme was reacted with the compound or vehicle for 30 min, 5×ATP at 25 μM (final concentration: 5 μM, Sigma) prepared with a kinase buffer was mixed with 5× substrate at 0.5 μM (final concentration: 0.1 μM, ULight-poly GT, PerkinElmer) at a ratio of 1:1 (v:v), and the mixture was added to each well at 4 μL/well. After being sealed with a film, the plate was incubated at room temperature for 2 h, and then 5 μL of 4×EDTA at 40 mM (final concentration: 10 mM) was added to each well. After the plate was incubated for 5 min at room temperature, 5 μL of 4× detection reagent at 8 nM (final concentration: 2 nM, Eu-anti-phospho-tyrosine antibody, PerkinElmer) was added to each well. After being incubated at room temperature for 1 h, the plate was read using a PerkinElmer Envision multi-mode microplate reader (excitation: 320 nm, emission: 665 nm), and IC50 was calculated by four-parameter fitting.

Data set [2] has as its system BAF3-EGFR (del19/T790M/C797S) cells. As to the kind of experiment: Inhibition of proliferation of BAF3-EGFR (Del19/T790M/C797S) cells, CCK-8. It is filed as cell-based. To be noted: Ba/F3 EGFR-Del19/T790M/C797S, 72 h, read-out: BAF3(EGFR T790M Del19 C797S) cell inhibitory activity IC50. The method, then: (§2) A flask of BAF3-EGFR (del19/T790M/C797S) cells in the logarithmic growth phase and good conditions was taken, and the cells were collected and added to a centrifuge tube. 20 μL of cells were taken and counted, and the required number of cells (mL) was pipetted and centrifuged at 1200 rpm for 3 min. The supernatant was discarded, and an appropriate amount of plating medium (RPMI medium+10% FBS) was added to adjust the cell density to 1.0×10^5 cells/mL. The cells were seeded on a 96-well plate at 100 μL/well using a multi-channel pipette and cultured in a cell incubator at 37° C., 5% CO2 with saturated humidity. After overnight incubation, compounds were loaded using a nanoliter pipettor, 2 duplicate wells were set for each concentration, and cells without compound added were used as negative controls.
(§3) Inhibition rate (%)=(mean value of negative control group-mean value of experimental group)/(mean value of negative control group−mean value of blank group)×100%.
(§4) A dose-response curve was fitted by four-parameter analysis, with the logarithm of compound concentration serving as abscissa and inhibition rate serving as ordinate, such that IC50 was calculated.

Data set [3] deals with EGFR (d746-750 (d19)/T790M) (Homo sapiens (Human), UniProt P00533, DEL746-750/T790M). The experiment in a line: Inhibitory activity for EGFR (d746-750 (d19)/T790M) kinase. To be noted: ATP 5 μM. The class given is biochemical. The method, then: 1.3 Screening for Inhibitory Activity for EGFR (d746-750 (d19)/T790M) Kinase
EGFR (d746-750 (d19)/T790M), sequence (P00533 other isoform, or with tags, fused parts or gaps T790M/del 1-668/del 746-750 limits assumed): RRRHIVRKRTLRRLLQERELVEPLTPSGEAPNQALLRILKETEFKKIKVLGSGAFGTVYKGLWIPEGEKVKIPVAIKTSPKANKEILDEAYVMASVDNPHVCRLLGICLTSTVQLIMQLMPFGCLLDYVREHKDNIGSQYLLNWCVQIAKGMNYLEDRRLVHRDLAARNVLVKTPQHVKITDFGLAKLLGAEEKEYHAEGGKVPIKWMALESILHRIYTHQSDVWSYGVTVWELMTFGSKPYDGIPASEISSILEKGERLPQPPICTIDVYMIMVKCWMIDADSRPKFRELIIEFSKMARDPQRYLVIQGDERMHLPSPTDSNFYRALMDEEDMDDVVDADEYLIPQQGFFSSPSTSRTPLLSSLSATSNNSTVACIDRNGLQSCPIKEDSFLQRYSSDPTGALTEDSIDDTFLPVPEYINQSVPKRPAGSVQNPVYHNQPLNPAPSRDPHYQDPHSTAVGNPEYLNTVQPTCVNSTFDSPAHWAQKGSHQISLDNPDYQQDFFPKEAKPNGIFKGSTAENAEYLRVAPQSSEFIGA
as §1, with “(d746-750/T790M, Carna)” for “(d746-750/T790M/C797S, BPS)”, “0.005” for “0.05”, “0.003” for “0.03”

In data set [4] the test system is BAF3-EGFR (L858R/T790M/C797S) cells. The experiment in a line: Inhibition of proliferation of BAF3-EGFR (L858R/T790M/C797S) cells, CCK-8. It is filed as cell-based. To be noted: Ba/F3 EGFR, 72 h, read-out: BAF3(EGFR T790M L858R C797S) cell inhibitory activity IC50. The method, then:
as §2, with “EGFR (L858R/T790M/C797S)” for “BAF3-EGFR (del19/T790M/C797S)”, “1.5×10^5” for “1.0×10^5”
as §3, §4

The nature of data set [5]: In vivo pharmacokinetics in ICR mice. To be noted: for AUC(0-t): read-out: AUC(0-t); for MRT last: read-out: MRT(0-t); for half-life: read-out: T½ (converted). The method, then: The animals to be tested (ICR mice) were fasted for 12 h before administration and food was provided 4 h after administration, and water was freely drunk before and after the experiment and during the experiment.
After intragastric administration, about 0.1 mL of blood was collected from the orbit at 0 min, 15 min, 30 min, 1 h, 2 h, 4 h, 6 h, 8 h, 10 h, and 24 h. After anticoagulation with EDTA-K2, blood samples were transferred to a centrifuge within 30 min, and centrifuged at 4000 rpm for 10 min at 4° C. to separate the plasma. All the plasma samples were collected and immediately stored at −20° C. for testing.
300 μL of acetonitrile solution containing an internal standard ([…] diazepam) was added to 20 μL of the plasma sample to be tested and a standard curve sample. The mixture was shaken and homogeneously mixed for 5 min, and centrifuged at 12,000 rpm for 10 min. 70 μL of supernatant was taken and diluted with 70 μL of ultrapure water. After being mixed well, 2 μL of the resulting sample was subjected to LC/MS/MS, and a chromatogram was recorded.

Setting [6] is: mouse, plasma, PO, 10 mg/kg intragastric.

For `Cc1cc2cc(n1)-c1cnn(C)c1OCCC[C@@H](C1CC1)CN1/C(=N/C2=O)Nc2ccc(OCCN(C)C)cc21` [Example 11], the IC50 was 24 pM in data set [1], below 1000 pM in data set [2], 25 pM in data set [3] and below 5000 pM in data set [4].
For `Cc1cc2cc(n1)-c1cnn(C3CC3)c1OCCC[C@@H](C)CN1/C(=N/C2=O)Nc2ccc(NCCN(C)C)cc21` [Example 17] the same measures were 14 pM, below 1000 pM, 12 pM and below 5000 pM.
In the same order, the values of `Cc1cc2cc(n1)-c1cnn(C)c1OCCC[C@@H](C1CC1)CN1/C(=N/C2=O)Nc2cc(NCC3CCOCC3)ccc21` [Example 22] are 30 pM, below 1000 pM, 18 pM and below 5000 pM.
For `Cc1cc2cc(n1)-c1cnn(C)c1OCCC[C@@H](C1CC1)CN1/C(=N/C2=O)Nc2ccc(NCCCN(C)C)cc21` [Example 27] the same measures were 27 pM, below 1000 pM, 19 pM and below 5000 pM.
Consider `Cc1cc2cc(n1)-c1cnn(C)c1OCCC[C@@H](C1CC1)CN1/C(=N/C2=O)Nc2cc(NCC3COC3)ccc21` [Example 36], for which the IC50 in data set [1] was 22 pM; in data set [2], below 1000 pM; in data set [3] it was 15 pM; in data set [4], below 5000 pM.
In the same order, the values of `Cc1cc2cc(n1)-c1cnn(C)c1OCCC[C@@H](C1CC1)CN1/C(=N/C2=O)Nc2cc(NCCN(C)C)ccc21` [Example 42] are 12 pM, below 1000 pM, 7.6 pM and below 5000 pM.
In the same order, the values of `Cc1cc2cc(n1)-c1cnn(C)c1OCCC[C@@H](C1CC1)CN1/C(=N/C2=O)Nc2ccc(NCCN)cc21` [Example 58] are 15 pM, below 1000 pM, 9.4 pM and below 5000 pM.
In the same order, the values of `Cc1cc2cc(n1)-c1cnn(C)c1OCCC[C@@H](C1CC1)CN1/C(=N/C2=O)Nc2cc(NC(C)CN(C)C)ccc21` (stereo partly drawn) [Example 62] are 22 pM, below 1000 pM, 13 pM and below 5000 pM.
`Cc1cc2cc(n1)-c1cnn(C)c1OCCC[C@@H](C1CC1)CN1/C(=N/C2=O)Nc2ccc(N[C@H](C)CN(C)C)cc21` [Example 65]: the IC50 in data set [2] was below 1000 pM; in data set [4], below 5000 pM.
Regarding `Cc1cc2cc(n1)-c1cnn(C)c1OCCC[C@@H](C1CC1)CN1/C(=N/C2=O)Nc2ccc(NCCN3CCCCC3)cc21` [Example 83], the IC50 in data set [1] was 17 pM; in data set [2] it was below 1000 pM; in data set [3], 13 pM; in data set [4], below 5000 pM.
As for `CCC1(Nc2ccc3c(c2)N/C2=N\C(=O)c4cc(C)nc(c4)-c4cnn(C)c4OCCC[C@@H](C4CC4)CN23)COC1` [Example 90], in data set [2], the IC50 is below 1000 pM. This compound had a CLz in data set [5] (IV) of 37.8 mL/min/kg. Besides, in data set [5] (mouse, plasma, 1 mg/kg, IV), the AUC(0-inf) turned out to be 441 ng·h/mL, the AUC(0-t) worked out at 441 ng·h/mL, the MRT last came out at 1.65 h and the half-life is 1.58 h. For the same compound, the bioavailability in data set [5] (mouse, plasma, 10 mg/kg, PO vs IV) is 68.4%. Besides, in data set [5] (setting [6]), the AUC(0-inf) turned out to be 3020 ng·h/mL, the AUC(0-t) turned out to be 3010 ng·h/mL, the MRT last is 6.47 h and the half-life was 2.46 h. In addition, the Cmax in data set [5] (mouse, plasma, PO, 10 mg/kg intragastric, read-out: Cmax) is 352 ng/mL. Besides, the Tmax in data set [5] (mouse, plasma, PO, 10 mg/kg intragastric, read-out: Tmax) stood at 0.5 h. The IC50 in data set [4] was below 5000 pM.
As for `CCC1(CNc2ccc3c(c2)N/C2=N\C(=O)c4cc(C)nc(c4)-c4cnn(C)c4OCCC[C@@H](C4CC4)CN23)COC1` [Example 92], the IC50 in data set [2] is below 1000 pM; in data set [4], below 5000 pM.
